Structures can show the parent of a compound that is named as a salt. Marks after values point to notes of the source that are not given here.
Assays:
rabbit cortex = assay: Quantitative EEG, rabbit cortex, intravenous administration; format: in vivo, rabbits; settings: for group percent change in electrical energy from pre-drug control, Δ band / mean change ± S.E. in electrical energy from pre-drug control, Δ band: Δ = 0.5-3.5 Hz; for group percent change in electrical energy from pre-drug control, α band / mean change ± S.E. in electrical energy from pre-drug control, α band: α= 7-13 Hz; for group percent change in electrical energy from pre-drug control, β band / mean change ± S.E. in electrical energy from pre-drug control, β band: β= 13-25 Hz; for group percent change in electrical energy from pre-drug control, γ band / mean change ± S.E. in electrical energy from pre-drug control, γ band: γ= 25-40 Hz; for group percent change in electrical energy from pre-drug control, θ band / mean change ± S.E. in electrical energy from pre-drug control, θ band: θ= 3.5-7.0 Hz
Procedure: At least 2 weeks were allowed for recovery before beginning experimentation.
Groups of four animals each were individually restrained and connected to an EEG amplifier and frequency analyzer. The EEG of each animal was recorded on a separate channel. The instrumentation filtered each channel of EEG analog data into five distinct frequency bands: Δ=0.5-3.5 Hz, ϑ=3.5-7.0 Hz, α=7-13 Hz, β=13-25 Hz and γ=25-40 Hz. The EEG analyzer then integrated the filtered waveforms and sent pulses to an associated computer at a rate proportional to the electrical energy of each band. Thus, one computer print-out provided a cortical EEG profile for the entire group of four rabbits.
Data from a one-hour recording period were collected in four 15-minute periods, which provided additional information concerning both onset and time of peak effect of drug activity. However, in this report only the mean activity of the four data collection periods was considered since onset of drug activity was immediate and duration of action was at least one hour for all drugs studied. Drug-induced EEG changes were determined by comparing the post-treatment print-out to the pretreatment control in the same animal and statistical analysis was performed on change from control, in counts, using multiple Student-t paired-comparison tests with p≦0.05 (Table 1). However, for clarity data are also presented as percent change from control (Figures 1 and 2).
All drugs were administered intravenously in saline solution as their respective salts and all dosage calculations were based on the free base. Recording was started immediately after injection and animals were not used more often than once per week. Initial doses were reduced geometrically until a no-effect dose was determined for each drug. However, only the "no-effect" data and the data generated from the next higher dose are presented in this report since the shape of the EEG profile is not dose-related, as opposed to the magnitude of the response which is dose-related.

[1] = system: fronto-occipital cortex of the cat; assay: Quantitative EEG, fronto-occipital cat cortex, subcutaneous administration; format: in vivo, cats; settings: for group percent change in electrical energy from pre-drug control, Δ band / mean change ± S.E. in electrical energy from pre-drug control, Δ band / group percent change in electrical energy from pre-drug control, α band / mean change ± S.E. in electrical energy from pre-drug control, α band / group percent change in electrical energy from pre-drug control, β band / mean change ± S.E. in electrical energy from pre-drug control, β band / group percent change in electrical energy from pre-drug control, γ band / mean change ± S.E. in electrical energy from pre-drug control, γ band / group percent change in electrical energy from pre-drug control, θ band / mean change ± S.E. in electrical energy from pre-drug control, θ band: fronto-occipital cat cortex; for group percent change in electrical energy from pre-drug control, Δ band / mean change ± S.E. in electrical energy from pre-drug control, Δ band: Δ = 0.5-3.5 Hz; for group percent change in electrical energy from pre-drug control, α band / mean change ± S.E. in electrical energy from pre-drug control, α band: α= 7-13 Hz; for group percent change in electrical energy from pre-drug control, β band / mean change ± S.E. in electrical energy from pre-drug control, β band: β= 13-25 Hz; for group percent change in electrical energy from pre-drug control, γ band / mean change ± S.E. in electrical energy from pre-drug control, γ band: γ= 25-40 Hz; for group percent change in electrical energy from pre-drug control, θ band / mean change ± S.E. in electrical energy from pre-drug control, θ band: θ= 3.5-7.0 Hz
From the text: This unique combination of activity may render buspirone useful in the treatment of childhood hyperkinesis which has been reported to respond to both selected phenothiazine and stimulant drugs. • (b) Adult mongrel female cats weighing 2.5-4.0 kg were implanted with EEG recording electrodes. Recording sites were as follows: fronto-occipital cortex, basal amygdala and ventral hippocampus.
Animals were individually held in canvas feline restraining bags for EEG recording. The EEG of each brain area was recorded on a separate channel. The instrumentation filtered each channel of EEG and analog data into five distinct frequency bands: Δ=0.5-3.5 Hz, ϑ=3.5-7.0 Hz, α=7-13 Hz, β=13-25 Hz and γ=25-40 Hz. The EEG analyzer then integrated the filtered waveforms and sent pulses to an associated computer at a rate proportional to the electrical energy of each band. Data collecting procedures were essentially the same as reported in Example 1. However, groups of six animals each were used and all drugs were administered subcutaneously in saline solution as their respective salts, but all dosages were calculated as the free base. Recording was started 30 minutes after injection to insure adequate drug absorption for peak activity.
Drug-induced EEG changes were determined by comparing the post-treatment data to the pre-treatment control in the same animal. Statistical analysis was performed on change from control, in instrument counts, using multiple Student-t-paired-comparison test with P≦0.05 (Table 2). However, for clarity data are also presented as percent change from control (Figures 3, 4 and 5).
The data in Table 2 are drug-induced changes resulting from the minimum and higher doses of each compound required to elicit the EEG profile characteristic of that particular drug.

[2] = rabbit cortex, 0.125 mg/kg free base i.v.
[3] = rabbit cortex, 0.25 mg/kg free base i.v.

## CN(C)CCCN1c2ccccc2Sc2ccc(Cl)cc21 [Chlorpromazine HCl, chlorpromazine]
Rabbit cortex; Oryctolagus cuniculus, iv, rabbit cortex EEG, dose of free base, read-out: the minimum dose required to produce the EEG profile characteristic of that particular drug
  minimal effective dose: 0.25 mg/kg
Rabbit cortex; rabbit cortex EEG, i.v.
  relative potency by comparing minimal doses required to elicit EEG profiles: approximately twice as potent as buspirone
Rabbit cortex; rabbit cortex EEG, dose of free base
  the no-effect dose: 0.125† mg/kg, i.v.
Rabbit cortex; rabbit cortex, i.v.
  EEG profile: completely different from that produced by stimulant drugs
Rabbit cortex; [2]
  group percent change in electrical energy from pre-drug control, Δ band: +15%
  mean change ± S.E. in electrical energy from pre-drug control, Δ band: +30 ± 17 instrument counts
  group percent change in electrical energy from pre-drug control, α band: +14%
  mean change ± S.E. in electrical energy from pre-drug control, α band: +21 ± 19 instrument counts
  group percent change in electrical energy from pre-drug control, β band: +10%
  mean change ± S.E. in electrical energy from pre-drug control, β band: +12 ± 11 instrument counts
  group percent change in electrical energy from pre-drug control, γ band: -3%
  mean change ± S.E. in electrical energy from pre-drug control, γ band: -3 ± 2 instrument counts
  group percent change in electrical energy from pre-drug control, θ band: +13%
  mean change ± S.E. in electrical energy from pre-drug control, θ band: +20 ± 17 instrument counts
Rabbit cortex; [3]
  group percent change in electrical energy from pre-drug control, Δ band: +75%
  mean change ± S.E. in electrical energy from pre-drug control, Δ band: +198 ± 51 instrument counts
  group percent change in electrical energy from pre-drug control, α band: +42%
  mean change ± S.E. in electrical energy from pre-drug control, α band: +65 ± 18 instrument counts
  group percent change in electrical energy from pre-drug control, β band: +30%
  mean change ± S.E. in electrical energy from pre-drug control, β band: +42 ± 13 instrument counts
  group percent change in electrical energy from pre-drug control, γ band: +5%
  mean change ± S.E. in electrical energy from pre-drug control, γ band: +4 ± 1 instrument counts
  group percent change in electrical energy from pre-drug control, θ band: +33%
  mean change ± S.E. in electrical energy from pre-drug control, θ band: +65 ± 22 instrument counts
[1]; Felis catus, sc, fronto-occipital cat cortex EEG, dose of free base, read-out: the minimum dose required to produce the EEG profile characteristic of that particular drug
  minimal effective dose: 1 mg/kg
[1]; fronto-occipital cat cortex EEG, dose of free base
  the no-effect dose: 0.5† mg/kg, s.c.
[1]; 0.5 mg/kg free base s.c.
  group percent change in electrical energy from pre-drug control, Δ band: +6%
  mean change ± S.E. in electrical energy from pre-drug control, Δ band: +14 ± 23 instrument counts
  group percent change in electrical energy from pre-drug control, α band: +19%
  mean change ± S.E. in electrical energy from pre-drug control, α band: +23 ± 14 instrument counts
  group percent change in electrical energy from pre-drug control, β band: +6%
  mean change ± S.E. in electrical energy from pre-drug control, β band: +6 ± 5 instrument counts
  group percent change in electrical energy from pre-drug control, γ band: -13%
  mean change ± S.E. in electrical energy from pre-drug control, γ band: -10 ± 4 instrument counts
  group percent change in electrical energy from pre-drug control, θ band: +15%
  mean change ± S.E. in electrical energy from pre-drug control, θ band: +22 ± 15 instrument counts
[1]; 1.0 mg/kg free base s.c.
  group percent change in electrical energy from pre-drug control, Δ band: +25%
  mean change ± S.E. in electrical energy from pre-drug control, Δ band: +46 ± 16 instrument counts
  group percent change in electrical energy from pre-drug control, α band: +25%
  mean change ± S.E. in electrical energy from pre-drug control, α band: +33 ± 8 instrument counts
  group percent change in electrical energy from pre-drug control, β band: +9%
  mean change ± S.E. in electrical energy from pre-drug control, β band: +13 ± 6 instrument counts
  group percent change in electrical energy from pre-drug control, γ band: -10%
  mean change ± S.E. in electrical energy from pre-drug control, γ band: -10 ± 5 instrument counts
  group percent change in electrical energy from pre-drug control, θ band: +20%
  mean change ± S.E. in electrical energy from pre-drug control, θ band: +28 ± 10 instrument counts
[1]; 4.0 mg/kg free base s.c.
  group percent change in electrical energy from pre-drug control, Δ band: +56%
  mean change ± S.E. in electrical energy from pre-drug control, Δ band: +83 ± 13 instrument counts
  group percent change in electrical energy from pre-drug control, α band: +38%
  mean change ± S.E. in electrical energy from pre-drug control, α band: +33 ± 2 instrument counts
  group percent change in electrical energy from pre-drug control, β band: -3%
  mean change ± S.E. in electrical energy from pre-drug control, β band: -3 ± 5 instrument counts
  group percent change in electrical energy from pre-drug control, γ band: -14%
  mean change ± S.E. in electrical energy from pre-drug control, γ band: -11 ± 3 instrument counts
  group percent change in electrical energy from pre-drug control, θ band: +53%
